This passage reports T/C results from PubChem BioAssay AID206 (DTP/NCI, 2004).

Results filed as inconclusive are left out.

For the experiment, the system named is nude mice, HT29 intrarenal xenograft, tumor weight T/C. Nature of the experiment: NCI In Vivo Anticancer Drug Screen. Data for tumor model HT29;CX-1 Human Adenocarcinoma (MER+) (intrarenal inoculation) in NU/NU Swiss (nude) mice. The note with it: endpoint: mean tumor weight change, higher = larger tumour. An outline of the steps:
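Tumor-bearing mice received test compound or vehicle, and tumor size or survival was recorded. Values are the treated-group measurement divided by the vehicle-treated control measurement.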

Where [1] appears, read: dose: 150.0 mg/kg/injection, schedule: Q04DX004 (sc), vehicle: saline with Tween-80.
Where [2] appears, read: dose: 300.0 mg/kg/injection, schedule: Q04DX004 (sc), vehicle: saline with Tween-80.
[3] abbreviates: dose: 600.0 mg/kg/injection, schedule: Q04DX004 (sc), vehicle: saline with Tween-80.
The mark [4] stands for this setting: dose: 1200.0 mg/kg/injection, schedule: Q04DX004 (sc), vehicle: saline with Tween-80.
The mark [5] stands for this setting: dose: 300.0 mg/kg/injection, schedule: Q04DX004 (sc), vehicle: saline.
The mark [6] stands for this setting: dose: 400.0 mg/kg/injection, schedule: Q04DX004 (sc), vehicle: saline with Tween-80.
Where [7] appears, read: dose: 800.0 mg/kg/injection, schedule: Q04DX004 (sc), vehicle: saline with Tween-80.
The mark [8] stands for this setting: dose: 2400.0 mg/kg/injection, schedule: Q04DX004 (sc), vehicle: saline with Tween-80.

Regarding `CN1C(=O)C(=Cc2ccc(O)cc2)C(=O)N(C)C1=O`, the T/C under setting [1] was 116 % of control, the T/C under setting [2] was 101 % of control, the T/C under setting [3] was 99 % of control and the T/C under setting [4] was 74 % of control.

With `OCC1OC(n2cnc3c(Cl)ncnc32)C(O)C1O` (stereo not given), the T/C reads like this: under setting [5], 94 % of control; (dose: 600.0 mg/kg/injection, schedule: Q04DX004 (sc), vehicle: saline) 84 % of control; (dose: 1200.0 mg/kg/injection, schedule: Q04DX004 (sc), vehicle: saline) 150 % of control.

Take `O=c1cc(-c2ccccc2)[nH]c2c1CCCC2`: the T/C is, setting by setting: (dose: 100.0 mg/kg/injection, schedule: Q04DX004 (sc), vehicle: saline with Tween-80) 82 % of control; (dose: 200.0 mg/kg/injection, schedule: Q04DX004 (sc), vehicle: saline with Tween-80) 70 % of control; under setting [6], 67 % of control; under setting [3], 37 % of control; under setting [7], 68 % of control; under setting [4], 58 % of control. The T/C under setting [8] is 101 % of control.

Regarding `C(CC1CO1)C1CO1` (stereo not given), the T/C is 35 % of control (dose: 50.0 mg/kg/injection, schedule: Q01DX010 (sc), vehicle: saline) and 37 % of control (dose: 100.0 mg/kg/injection, schedule: Q01DX010 (sc), vehicle: saline).

With `COC1C(O)CC(OC2CC(Oc3cc4cc5c(c(O)c4c(O)c3C)C(=O)[C@@H](OC3CC(OC4CC(OC6CC(C)(O)C(OC(C)=O)C(C)O6)C(O)C(C)O4)C(O)C(C)O3)[C@H]([C@H](OC)C(=O)[C@@H](O)[C@@H](C)O)C5)OC(C)C2OC(C)=O)OC1C` (stereo not given in full), the T/C by setting is: (dose: 0.19 mg/kg/injection, schedule: Q04DX004 (sc), vehicle: Klucel (hydroxypropylcellulose) (HPC)) 103 % of control; (dose: 0.3 mg/kg/injection, schedule: Q04DX004 (sc), vehicle: Klucel (hydroxypropylcellulose) (HPC)) 39 % of control; (dose: 0.38 mg/kg/injection, schedule: Q04DX004 (sc), vehicle: Klucel (hydroxypropylcellulose) (HPC)) 85 % of control; (dose: 0.75 mg/kg/injection, schedule: Q04DX004 (sc), vehicle: Klucel (hydroxypropylcellulose) (HPC)) 89 % of control; (dose: 1.2 mg/kg/injection, schedule: Q04DX004 (sc), vehicle: Klucel (hydroxypropylcellulose) (HPC)) 46 % of control; (dose: 1.5 mg/kg/injection, schedule: Q04DX004 (sc), vehicle: Klucel (hydroxypropylcellulose) (HPC)) 21 % of control.

Regarding `OC(CCl)CN1CC[N+]2(CC1)CC[N+]1(CCN(CC(O)CCl)CC1)CC2` (stereo not given), the T/C is, setting by setting: (dose: 32.0 mg/kg/injection, schedule: Q01DX010 (sc), vehicle: water) 245 % of control; (dose: 64.0 mg/kg/injection, schedule: Q01DX010 (sc), vehicle: water) 59 % of control; (dose: 128.0 mg/kg/injection, schedule: Q01DX010 (sc), vehicle: water) 108 % of control; (dose: 256.0 mg/kg/injection, schedule: Q01DX010 (sc), vehicle: water) 35 % of control.

As to `C1CN1c1nc(N2CC2)nc(N2CC2)n1`, the T/C (dose: 0.25 mg/kg/injection, schedule: Q01DX010 (sc), vehicle: saline) is 213 % of control.

In the case of `C[n+]1c2cc(N)ccc2cc2ccc(N)cc21`, the T/C runs as follows: (dose: 1.56 mg/kg/injection, schedule: Q01DX010 (sc), vehicle: saline) 72 % of control; (dose: 3.13 mg/kg/injection, schedule: Q01DX010 (sc), vehicle: saline) 49 % of control; (dose: 6.25 mg/kg/injection, schedule: Q01DX010 (sc), vehicle: saline) 88 % of control.

On to `C[n+]1c(/C=N/NC(N)=S)ccc2ccccc21`, for which the T/C by setting is: under setting [1], 75 % of control; under setting [3], 66 % of control; under setting [4], 72 % of control.

As for `CCCCCCC(=O)CC(SCC)c1ccccc1Cl` (stereo not given), the T/C was 94 % of control under setting [1], 92 % of control under setting [2] and 99 % of control under setting [4].

With `COC1C(OC(=O)/C=C/C=C/C=C/C=C/C(=O)O)CCC2(CO2)C1C1(C)OC1CC=C(C)C` (stereo not given), the T/C is 104 % of control (dose: 75.0 mg/kg/injection, schedule: Q04DX004 (sc), vehicle: saline); 96 % of control (dose: 150.0 mg/kg/injection, schedule: Q04DX004 (sc), vehicle: saline); 119 % of control under setting [5].

In the case of `C=C1C(C)C2C(Cc3ccccc3)NC(=O)C23C(OC(C)=O)/C=C/C(C)(O)CC(C)C/C=C/C3C1O` (stereo not given), the T/C is 42 % of control (dose: 3.13 mg/kg/injection, schedule: Q04DX004 (sc), vehicle: distilled water + Tween-80); 124 % of control (dose: 6.25 mg/kg/injection, schedule: Q04DX004 (sc), vehicle: distilled water + Tween-80); 87 % of control (dose: 12.5 mg/kg/injection, schedule: Q04DX004 (sc), vehicle: distilled water + Tween-80); 63 % of control (dose: 25.0 mg/kg/injection, schedule: Q04DX004 (sc), vehicle: distilled water + Tween-80).

Take `C(C#CCN1CCOCC1)#CCN1CCOCC1`: the T/C by setting is: (dose: 600.0 mg/kg/injection, schedule: Q04DX004 (sc), vehicle: Klucel (hydroxypropylcellulose) (HPC)) 100 % of control; (dose: 1200.0 mg/kg/injection, schedule: Q04DX004 (sc), vehicle: Klucel (hydroxypropylcellulose) (HPC)) 72 % of control; (dose: 2400.0 mg/kg/injection, schedule: Q04DX004 (sc), vehicle: Klucel (hydroxypropylcellulose) (HPC)) 68 % of control.

Turning to `CCCCNC(C)C1(O)Cc2c(O)c3c(c(O)c2C(OC2CC(N)C(O)C(C)O2)C1)C(=O)c1c(OC)cccc1C3=O` (stereo not given), where the note is “dose: 100.0 mg/kg/injection, schedule: Q01DX010 (sc), vehicle: water”, the T/C is 44 % of control.

Consider `O=[N+]([O-])O.[Ga]`, for which the T/C runs as follows: (dose: 50.0 mg/kg/injection, schedule: Q04DX004 (sc), vehicle: saline) 99 % of control; (dose: 100.0 mg/kg/injection, schedule: Q04DX004 (sc), vehicle: saline) 66 % of control; (dose: 200.0 mg/kg/injection, schedule: Q04DX004 (sc), vehicle: saline) 80 % of control; (dose: 400.0 mg/kg/injection, schedule: Q04DX004 (sc), vehicle: saline) 103 % of control.

Regarding `CCC(=O)Sc1ccccc1C(=O)Nc1ccc(Cl)cc1`, the T/C under setting [2] was 122 % of control, the T/C under setting [3] was 93 % of control, the T/C under setting [4] was 103 % of control and the T/C under setting [8] is 91 % of control.

`ClCCCCCCCCCCc1ccccc1`: the T/C (dose: 100.0 mg/kg/injection, schedule: Q01DX010 (sc), vehicle: Klucel (hydroxypropylcellulose) (HPC)) is 23 % of control; the T/C (dose: 200.0 mg/kg/injection, schedule: Q01DX010 (sc), vehicle: Klucel (hydroxypropylcellulose) (HPC)) is 36 % of control; the T/C (dose: 400.0 mg/kg/injection, schedule: Q01DX010 (sc), vehicle: Klucel (hydroxypropylcellulose) (HPC)) was 57 % of control.

`CCN(CC)Cc1cc2[nH]c3c4ccc(Cl)cc4ncc3c2cc1OC`: the T/C was 187 % of control (dose: 37.5 mg/kg/injection, schedule: Q04DX004 (sc), vehicle: saline with Tween-80); 161 % of control under setting [1]; 94 % of control under setting [2].

For the compound `Cc1cn(C2CC(F)C(CO)O2)c(=O)[nH]c1=O` (stereo not given), the T/C is, setting by setting: (dose: 100.0 mg/kg/injection, schedule: Q04DX004 (sc), vehicle: suspension in saline) 65 % of control; (dose: 200.0 mg/kg/injection, schedule: Q04DX004 (sc), vehicle: suspension in saline) 60 % of control; (dose: 400.0 mg/kg/injection, schedule: Q04DX004 (sc), vehicle: suspension in saline) 117 % of control; (dose: 800.0 mg/kg/injection, schedule: Q04DX004 (sc), vehicle: suspension in saline) 74 % of control.

`NCC1CCC(C(=O)O)CC1` (stereo not given): the T/C runs as follows: under setting [6], 119 % of control; under setting [7], 93 % of control; (dose: 1600.0 mg/kg/injection, schedule: Q04DX004 (sc), vehicle: saline with Tween-80) 112 % of control.

For the compound `CN(Cc1cnc2nc(N)nc(N)c2n1)c1ccc(C(=O)N[C@@H](CCC(=O)O)C(=O)O)cc1`, the T/C reads like this: (dose: 0.5 mg/kg/injection, schedule: Q01DX010 (sc), vehicle: sodium bicarbonate) 116 % of control; (dose: 1.0 mg/kg/injection, schedule: Q01DX010 (sc), vehicle: sodium bicarbonate) 41 % of control.
